Values quoted from earlier work as cited in patent US20180255771A1, “CONTROLLED GAS PHASE RELEASE OF NON AQUEOUS PHASE LIQUID ESSENTIAL OIL COMPOUNDS FOR AROMATHERAPY, FRAGRANCE AND INSECTICIDAL ACTIVITY” (priority 2015, published 2018).

Legend:
[1] = tested on: Ixodes ricinus; settings: for repellency to Ixodes ricinus compared with DEET: 10 ug dose; for repellency to Ixodes ricinus: 1 ug dose
[2] = at 20° C.
[3] = USEPA conclusion

Compound | repellency to Ixodes ricinus compared with DEET [1] | repellency to Ixodes ricinus [1] | also measured
C=CCc1cc(OC)c(O)c(OC)c1 [4-Allyl-2,6-dimethoxyphenol] | as repellent as DEET | – | –
CCc1ccc(O)c(O)c1 [4-Ethyl-1,2-benzenediol] | as repellent as DEET | statistically significantly more repellent | –
Cc1ccc(O)c(O)c1 [4-Methyl-1,2-benzenediol] | as repellent as DEET | – | –
CCN(CC)C(=O)c1cccc(C)c1 [DEET, N,N-diethyl-meta-toluamide] | – | not reported to be effective | vapor pressure [2]: 0.0056 mm Hg; risks to humans or the environment [3]: will generally not cause unreasonable risks
C=CCc1ccc(O)c(OC)c1 [eugenol] | – | – | repelling ticks (Ixodes ricinus) compared with DEET ([1]; 100 ug dose, DEET at a 100 ug dose): as effective at repelling ticks
